Test [1] concerns the target T1, androgen receptor (AR-LBD) (Rattus norvegicus, UniProt P15207).
T1 construct: 5 μL of 2×AR-LBD/Fluoromone AL Red Complex contained in the kit; purchased Invitrogen
T1 sequence (P15207 651-882 limits assumed): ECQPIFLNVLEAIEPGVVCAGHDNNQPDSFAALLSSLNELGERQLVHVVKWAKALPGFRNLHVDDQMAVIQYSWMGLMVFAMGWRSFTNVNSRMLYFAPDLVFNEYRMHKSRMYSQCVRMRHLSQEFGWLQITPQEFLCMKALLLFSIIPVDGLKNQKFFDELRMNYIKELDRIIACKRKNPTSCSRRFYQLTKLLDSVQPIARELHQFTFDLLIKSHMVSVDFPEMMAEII
Nature of the test: Evaluation of androgen receptor affinity (PolarScreen Androgen Receptor Competitor Assay Kit, Red; fluorescence polarization). The following applies: 22° C. for 5 hours, relative to binding rate of 1 μM DHT, read-out: AR affinity (pEC50) (converted). An outline of the steps:
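Fluorescence polarization competition assay: compound was incubated in duplicate with the kit's AR-LBD/Fluoromone AL Red complex for 5 h at 22 °C. Binding was expressed relative to 1 μM DHT, and pEC50 was derived by 4-parameter fit.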
(In fluorescence polarisation assays a small probe gives low polarisation when free and higher when bound to something large.)

The target of test [2] is T2, human androgen receptor (Homo sapiens, UniProt P10275).
T2 construct: expressed in transfected cells; host or cells: HEK293
T2 sequence (P10275 1-920): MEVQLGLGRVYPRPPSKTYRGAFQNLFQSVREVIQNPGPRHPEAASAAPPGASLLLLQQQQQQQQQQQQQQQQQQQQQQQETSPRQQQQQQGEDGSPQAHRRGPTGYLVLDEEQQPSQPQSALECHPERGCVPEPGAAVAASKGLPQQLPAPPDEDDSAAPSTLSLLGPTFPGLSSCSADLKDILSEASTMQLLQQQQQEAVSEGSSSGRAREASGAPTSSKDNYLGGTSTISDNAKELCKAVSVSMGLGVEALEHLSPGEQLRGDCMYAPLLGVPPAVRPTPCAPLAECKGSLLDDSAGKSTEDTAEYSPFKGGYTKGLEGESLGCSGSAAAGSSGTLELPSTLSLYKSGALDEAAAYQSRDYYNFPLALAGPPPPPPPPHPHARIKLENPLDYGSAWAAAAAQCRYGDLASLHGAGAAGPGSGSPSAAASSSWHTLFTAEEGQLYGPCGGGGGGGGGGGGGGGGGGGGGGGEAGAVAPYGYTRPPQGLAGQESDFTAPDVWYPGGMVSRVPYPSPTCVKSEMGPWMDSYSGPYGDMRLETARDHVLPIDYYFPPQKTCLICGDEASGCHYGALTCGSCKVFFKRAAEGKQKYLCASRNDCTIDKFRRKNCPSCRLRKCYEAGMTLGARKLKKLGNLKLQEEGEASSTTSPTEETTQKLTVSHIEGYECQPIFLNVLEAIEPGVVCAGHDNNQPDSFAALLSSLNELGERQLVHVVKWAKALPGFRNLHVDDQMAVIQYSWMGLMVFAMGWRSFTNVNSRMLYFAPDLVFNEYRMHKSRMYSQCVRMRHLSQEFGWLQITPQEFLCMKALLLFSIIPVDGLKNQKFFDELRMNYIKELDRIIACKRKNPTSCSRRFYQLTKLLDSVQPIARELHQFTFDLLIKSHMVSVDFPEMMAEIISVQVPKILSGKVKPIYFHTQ
Nature of the test: Reporter assay of an androgen receptor responsive sequence (luciferase, transiently transfected HEK293 cells). The test is classed as cell-based. To be noted: 24 hours incubation, relative to activity of 100 nM DHT, read-out: AR transcriptive activity (pEC50) (converted). Put shortly:
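HEK293 cells transiently transfected for 3 h with ARE-firefly luciferase, full-length human AR and TK-Renilla plasmids, then exposed to compound for 24 h at 37 °C in 5% charcoal-treated FBS/DMEM. Dual-Glo luminescence read; pEC50 from 4-parameter fit relative to 100 nM DHT.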
In general terms: Reporter assays use an easily measured gene product as a stand-in for the process of interest.

With `Cc1sc(N(Cc2ncccc2O)c2ccc(C#N)cc2)nc1C(=O)NS(C)(=O)=O` [Compound 492, 2-[4-cyano-N-[(3-hydroxyl-pyridyl)methyl]anilino]-5-methyl-N-methylsulfonyl-thiazole-4-carboxamide], the EC50 in test [1] was 794 nM; in test [2] it was 1260 nM.

Consider `Cc1sc(N(Cc2cccc(=O)[nH]2)c2ccc(C#N)cc2)nc1C(=O)NS(C)(=O)=O` [Compound 493, 2-[4-cyano-N-[(6-oxo-1H-pyridin-2-yl)methyl]anilino]-5-methyl-N-methylsulfonyl-thiazole-4-carboxamide], for which the EC50 was greater than 2000 nM in test [1] and greater than 10000 nM in test [2].

Regarding `Cc1sc(N(Cc2cnc(-c3ccc(F)cc3)s2)c2ccc(C#N)cc2)nc1C(=O)NS(C)(=O)=O` [Compound 494, 2-[4-cyano-N-[[2-(4-fluorophenyl)thiazol-5-yl]methyl]anilino]-5-methyl-N-methylsulfonyl-thiazole-4-carboxamide], the EC50 in test [1] was 31.6 nM; in test [2] it was 1000 nM.

`Cc1sc(N(Cc2cnc(-c3ccccc3F)s2)c2ccc(C#N)cc2)nc1C(=O)NS(C)(=O)=O` [Compound 495, 2-[4-cyano-N-[[2-(2-fluorophenyl)thiazol-5-yl]methyl]anilino]-5-methyl-N-methylsulfonyl-thiazole-4-carboxamide]: the values for the EC50 in test [1] and in test [2] were 39.8 nM and greater than 10000 nM, respectively.

With `Cc1sc(N(Cc2ccc(Br)nc2)c2ccc(C#N)cc2)nc1C(=O)NS(C)(=O)=O` [Compound 496, 2-[N-[(6-bromo-3-pyridyl)methyl]-4-cyano-anilino]-5-methyl-N-methylsulfonyl-thiazole-4-carboxamide], the EC50 in test [1] is 126 nM; in test [2], 158 nM.

Turning to `Cc1sc(N(Cc2nc3ccccc3s2)c2ccc(C#N)cc2)nc1C(=O)NS(C)(=O)=O` [Compound 497, 2-[N-(1,3-benzothiazol-2-ylmethyl)-4-cyano-anilino]-5-methyl-N-methylsulfonyl-thiazole-4-carboxamide], the EC50 in test [1] is 126 nM; in test [2], 200 nM.

For the molecule `Cc1sc(N(Cc2ccc(C(F)(F)F)cc2F)c2ccc(C#N)cc2)nc1C(=O)NS(C)(=O)=O` [Compound 498, 2-[4-cyano-N-[[2-fluoro-4-(trifluoromethyl)phenyl]methyl]anilino]-5-methyl-N-methylsulfonyl-thiazole-4-carboxamide], the EC50 is 31.6 nM in test [1] and 100 nM in test [2].

As to `COCCCS(=O)(=O)NC(=O)c1nc(N(Cc2ccc(F)cc2)c2ccc(C#N)cc2)sc1C` [Compound 499, 2-[4-cyano-N-[(4-fluorophenyl)methyl]anilino]-N-(3-methoxypropylsulfonyl)-5-methyl-thiazole-4-carboxamide], the EC50 in test [1] was 39.8 nM; in test [2] it was 158 nM.

In the case of `Cc1sc(N(Cc2ccc(OC(F)(F)F)cc2)c2ccc(C#N)cc2)nc1C(=O)NS(=O)(=O)Cc1ccncc1` [Compound 500, 2-[4-cyano-N-[[4-(trifluoromethoxy)phenyl]methyl]anilino]-5-methyl-N-(4-pyridylmethylsulfonyl)thiazole-4-carboxamide], the EC50 in test [1] is 20 nM; in test [2], 126 nM.

Consider `Cc1sc(N(Cc2ccc(F)cc2)c2ccc(C#N)cc2)nc1C(=O)NS(=O)(=O)Cc1ccncc1` [Compound 501, 2-[4-cyano-N-[(4-fluorophenyl)methyl]anilino]-5-methyl-N-(4-pyridylmethylsulfonyl)thiazole-4-carboxamide], for which the EC50 in test [1] is 39.8 nM; in test [2], 63.1 nM.

`COc1cccc(CN(CCc2ccc(Cl)cc2)c2nc(C(=O)NS(C)(=O)=O)c(C)s2)n1` [Compound 502, 2-[2-(4-chlorophenyl)ethyl-[(6-methoxy-2-pyridyl)methyl]amino]-5-methyl-N-methylsulfonyl-thiazole-4-carboxamide]: the EC50 in test [1] is 39.8 nM; in test [2] it was 794 nM.

Source of the values: US10689354B2, “Aminoazole derivative” (Teijin Pharma Limited, priority 2015, dated 2020).
